Results from patent US4720495A, “Benzo[ij]quinolizine-2-carboxylic acids useful for treating bacterial infection” (priority 1985, dated 1988).
≈ marks a conversion by molar mass, not a printed value.

Experiments:
Escherichia coli CI-304 [1] = test: therapeutic effect on experimentally induced infection in mice; format: in vivo, Escherichia coli CI-304 in male ddY strain mice; settings: CI304, po, 168 h, orally, one hour after inoculation, survival after 7 days
Experimental: Using male ddY strain mice infected with Escherichia coli CI-304 (in groups of five; weighing 20±1 g), the therapeutic effect of some typical examples of the present compounds [I] was tested. The therapeutic effect was evaluated by administering each test compound orally to infected mice and calculating ED50 from the number of mice surviving after the lapse of 7 days. Infected mice were prepared by suspending cells of the aforesaid Escherichia coli strain in a 5% mucin solution and injecting this suspension into the peritoneal cavity of mice. The dose of the bacterial cells was ten times the minimal lethal dose which had previously been determined by a preliminary test. One hour after inoculation of the bacterial cells, each test compound was administered orally to the mice.
For purposes of comparison, ofloxacin and OPC-7241 were tested in the same manner as described above and the results thus obtained are also shown in Table 3.

[2] = tested on: Staphylococcus aureus FDA 209P JC-1; test: minimal inhibitory concentration, in vitro antibacterial activity; format: cell-based; settings: FDA209P, 37° C., 20 hours
Experimental: (§1) The in vitro antibacterial activities of typical examples of the present compounds [I] were evaluated in terms of the minimal inhibitory concentration defined as the lowest concentration of the compound preventing the bacterial growth. The Gram-positive bacteria used as test microorganisms included Bacillus subtilis, Staphylococcus aureus and Streptococcus faecalis, and the Gram-negative bacteria used as test microorganisms included Escherichia coli, Enterobacter cloacae, Klebsiella pneumoniae, Proteus vulgaris, Pseudomonas aeruginosa, Serratia marcescens and Salmonella enteritidis. The minimal inhibitory concentration (cultured at 37° C. for 20 hours) was determined according to the standard method prescribed by the Japan Society of Chemotherapy (CHEMOTHERAPY, Vol. 29, No. 1, p. 76, 1981). The following compounds were used as typical examples of the present compounds [I]. At the end of the chemical name of each compound, its tentative designation is given in Parentheses.
(§2) For purposes of comparison, the in vitro antibacterial activities of ofloxacin, OPC-7241 and compound α were evaluated according to the same method as described above and the test results thus obtained are also shown in Table 1.

[3] = tested on: Escherichia coli NIHJ JC-2; test: as above; format: cell-based; settings: NIHJJC2, 37° C., 20 hours
Experimental: as §1, §2

Escherichia coli CI-304 [4] = test: as above; format: cell-based; settings: CI304, 37° C., 20 hours
Experimental: as §1, §2

[5] = tested on: Klebsiella pneumoniae PCI 602; test: as above; format: cell-based; settings: PCI602, 37° C., 20 hours
Experimental: as §1, §2

[6] = tested on: Streptococcus faecalis AHU 1085; test: as above; format: cell-based; settings: Enterococcus faecalis, AHU1085, 37° C., 20 hours
Experimental: as §1, §2

[7] = tested on: Proteus vulgaris ATCC 13315; test: as above; format: cell-based; settings: ATCC13315, 37° C., 20 hours
Experimental: as §1, §2

Enterobacter cloacae 963 = test: as above; format: cell-based; settings: 37° C., 20 hours
Experimental: as §1, §2

[8] = tested on: Serratia marcescens IAM 1184; test: as above; format: cell-based; settings: IAM1184, 37° C., 20 hours
Experimental: as §1, §2

[9] = tested on: Salmonella enteritidis G14; test: as above; format: cell-based; settings: Salmonella enterica, 37° C., 20 hours
Experimental: as §1, §2

[10] = tested on: Bacillus subtilis ATCC 6633; test: as above; format: cell-based; settings: ATCC6633, 37° C., 20 hours
Experimental: as §1, §2

[11] = tested on: Pseudomonas aeruginosa NCTC 10490; test: as above; format: cell-based; settings: NCTC10490, 37° C., 20 hours
Experimental: as §1, §2

[12] = 1 mg/mouse (equivalent to 50 mg/kg) orally, cited from earlier work
[13] = enteral absorbability, serum concentration after oral administration to mice; format: in vivo; settings: mouse, 50 mg/kg orally, fasted male ICR mice; for concentration at 0.5 h: 30 min.
Experimental: Using male ICR mice fasted overnight (weighing 20±1 g), the enteral absorbability of some typical examples of the present compounds [I] was tested. This test was carried out by administering 50 mg/kg of each test compound orally to mice and determining its serum concentration 30 minutes, 1 hour, 2 hours and 4 hours after administration. Five mice were used for each test point. At each test point, whole blood was collected from the mice by cardiac puncture and used to prepare serum samples. Concentrations of the test compounds in serum samples were determined by the paper disc method using Escherichia coli CI-304 as the test microorganism.
For purposes of comparison, the enteral absorbability of ofloxacin and OPC-7241 was tested in the same manner as described above and the results thus obtained are also shown in Table 2.

[14] = 50 mg/kg orally, fasted mice, after 30 minutes; cited from earlier work
[15] = tested on: Gram-negative and Gram-positive bacteria; settings: in vitro tests with Gram-negative and Gram-positive bacteria; cited from earlier work
Gram-positive bacteria = test: confirmatory experiment on the antibacterial activity of Compound α; format: cell-based
Source text: (§3) On the other hand, Compound α has only been reported to be useful as an intermediate material for the preparation of 9-fluoro-6, 7-dihydro-7-hydroxy-5-methyl-1-oxo-1H, 5H-benzo[ij]quinolizine-2-carboxylic acid (Japanese Patent Laid-Open No. 127,099/'76), and no detailed report on its antibacterial activity has been published.

[16] = tested on: Gram-negative bacteria (such as Pseudomonas aeruginosa, Serratia marcescens and the like); test: as above; format: cell-based
Source text: as §3

Row | Structure (SMILES) | ED50 (Escherichia coli CI-304 [1]) [mg/kg] | MIC [2] [µg/mL] | MIC [3] [µg/mL] | MIC (Escherichia coli CI-304 [4]) [µg/mL] | MIC [5] [µg/mL] | MIC [6] [µg/mL] | MIC [7] [µg/mL] | MIC (Enterobacter cloacae 963) [µg/mL] | MIC [8] [µg/mL] | MIC [9] [µg/mL] | MIC [10] [µg/mL] | MIC [11] [µg/mL] | concentration at 0.5 h [13] [ng/mL] | concentration at 1 h [13] [ng/mL] | concentration at 2 h [13] [ng/mL] | concentration at 4 h [13] [ng/mL] | other results
1 | CC1COc2c(N3CCN(C)CC3)c(F)cc3c(=O)c(C(=O)O)cn1c23 (stereo not shown) [Ofloxacin, 9-fluoro-3-methyl-10-(4-methyl-1-piperazinyl)-7-oxo-2,3-dihydro-7H-pyrido[1,2,3-de][1,4]benzoxazine-6-carboxylic acid, reference compound] | 0.9 | 0.2 (≈ 0.553 µM) | 0.2 (≈ 0.553 µM) | 0.1 (≈ 0.277 µM) | 0.1 (≈ 0.277 µM) | 0.78 (≈ 2.16 µM) | 0.1 (≈ 0.277 µM) | 0.2 (≈ 0.553 µM) | 0.78 (≈ 2.16 µM) | 0.39 (≈ 1.08 µM) | 0.1 (≈ 0.277 µM) | 0.78 (≈ 2.16 µM) | 9000 | 6200 | 2600 | 1200 | residual concentration in the serum ([12]; 2 hours after administration): 1.5 µg/mL; serum concentration ([12]; fasted mice, after 30 minutes): 10000 ng/mL
2 | CCn1cc(C(=O)O)c(=O)c2cc(F)c(N3CCNCC3)cc21 [norfloxacin, 1-ethyl-6-fluoro-1,4-dihydro-7-(1-piperazinyl)-4-oxoquinoline-3-carboxylic acid] | – | – | – | – | – | – | – | – | – | – | – | – | – | – | – | – | degree of absorption into the serum, average peak value [14]: 1 ± 0.6 µg/mL; antibacterial activity [15]: excellent antibacterial activity
3 | CC1CCc2c(N3CCN(C)CC3)c(F)cc3c(=O)c(C(=O)O)cn1c23 (stereo not shown) [OPC-7241, 9-fluoro-6,7-dihydro-5-methyl-8-(4-methyl-1-piperazinyl)-1-oxo-1H, 5H-benzo[ij]quinolizine-2-carboxylic acid, reference compound] | 1.7 | 0.39 (≈ 1.09 µM) | 0.39 (≈ 1.09 µM) | 0.2 (≈ 0.556 µM) | 0.1 (≈ 0.278 µM) | 0.78 (≈ 2.17 µM) | 0.1 (≈ 0.278 µM) | 0.78 (≈ 2.17 µM) | 1.56 (≈ 4.34 µM) | 0.78 (≈ 2.17 µM) | 0.1 (≈ 0.278 µM) | 3.13 (≈ 8.71 µM) | 9300 | 7800 | 4100 | 2200 | –
4 | CC1CC(=O)c2c(N3CCN(C)CC3)c(F)cc3c(=O)c(C(=O)O)cn1c23 (stereo not shown) [Compound 3, 9-Fluoro-5-methyl-8-(4-methyl-1-piperazinyl)-6,7-dihydro-1,7-dioxo-1H, 5H-benzo[ij]quinolizine-2-carboxylic acid] | 0.52 | 0.39 (≈ 1.04 µM) | 0.2 (≈ 0.536 µM) | 0.1 (≈ 0.268 µM) | 0.1 (≈ 0.268 µM) | 0.78 (≈ 2.09 µM) | 0.2 (≈ 0.536 µM) | 0.2 (≈ 0.536 µM) | 1.56 (≈ 4.18 µM) | 0.78 (≈ 2.09 µM) | 0.1 (≈ 0.268 µM) | 0.78 (≈ 2.09 µM) | 24200 | 22400 | 12600 | 8400 | –
5 | CC1CC(=O)c2cc(F)cc3c(=O)c(C(=O)O)cn1c23 (stereo not drawn) [Compound α, 9-fluoro-6,7-dihydro-1,7-dioxo-5-methyl-1H, 5H-benzo[ij]quinolizine-2-carboxylic acid, reference compound] | – | > 100 | 25 (≈ 90.8 µM) | 12.5 (≈ 45.4 µM) | 12.5 (≈ 45.4 µM) | > 100 | 25 (≈ 90.8 µM) | 12.5 (≈ 45.4 µM) | > 100 | 50 (≈ 182 µM) | 12.5 (≈ 45.4 µM) | > 100 | – | – | – | – | efficacy against Gram-positive bacteria (Gram-positive bacteria): low; efficacy against Gram-negative bacteria [16]: utterly ineffective
6 | CC1CN(c2c(F)cc3c(=O)c(C(=O)O)cn4c3c2C(=O)CC4C)CCN1 (stereo not shown) [Compound 16, 9-fluoro-5-methyl-8-(3-methyl-1-piperazinyl)-6,7-dihydro-1,7-dioxo-1H, 5H-benzo[ij]quinolizine-2-carboxylic acid] | 0.71 | 0.2 (≈ 0.536 µM) | 0.2 (≈ 0.536 µM) | 0.1 (≈ 0.268 µM) | 0.1 (≈ 0.268 µM) | 0.78 (≈ 2.09 µM) | 0.2 (≈ 0.536 µM) | 0.2 (≈ 0.536 µM) | 1.56 (≈ 4.18 µM) | 0.78 (≈ 2.09 µM) | 0.2 (≈ 0.536 µM) | 0.78 (≈ 2.09 µM) | 16400 | 13600 | 8100 | 4800 | –
7 | CC1CN(c2c(Cl)cc3c(=O)c(C(=O)O)cn4c3c2C=CC4C)CCN1 (stereo not shown) [Compound 31, 9-Chloro-5-methyl-8-(3-methyl-1-piperazinyl) -1-oxo-1H, 5H-benzo[ij]quinolizine-2-carboxylic acid] | – | 0.2 (≈ 0.535 µM) | 0.1 (≈ 0.267 µM) | 0.2 (≈ 0.535 µM) | 0.1 (≈ 0.267 µM) | 0.78 (≈ 2.09 µM) | 0.1 (≈ 0.267 µM) | 0.2 (≈ 0.535 µM) | 1.56 (≈ 4.17 µM) | 1.56 (≈ 4.17 µM) | 0.2 (≈ 0.535 µM) | 1.56 (≈ 4.17 µM) | 13800 | 12700 | 8400 | 5000 | –
8 | CC1CN(c2c(F)cc3c(=O)c(C(=O)O)cn4c3c2C=CC4C)CCN1 (stereo not shown) [Compound 29, 9-Fluoro-5-methyl-8-(3-methyl-1-piperazinyl) -1-oxo-1H, 5H-benzo[ij]quinolizine-2-carboxylic acid] | 0.69 | 0.2 (≈ 0.56 µM) | 0.1 (≈ 0.28 µM) | 0.1 (≈ 0.28 µM) | 0.1 (≈ 0.28 µM) | 0.78 (≈ 2.18 µM) | 0.1 (≈ 0.28 µM) | 0.2 (≈ 0.56 µM) | 0.78 (≈ 2.18 µM) | 0.78 (≈ 2.18 µM) | 0.2 (≈ 0.56 µM) | 1.56 (≈ 4.37 µM) | 15600 | 14400 | 9800 | 4200 | –
9 | CCN1CCN(c2c(Cl)cc3c(=O)c(C(=O)O)cn4c3c2C(=O)CC4C)CC1 (stereo not shown) [Compound 9, 9-Chloro-5-methyl-8-(4-ethyl-1-piperazinyl) -6,7-dihydro-1,7-dioxo-1H, 5H-benzo[ij]quinolizine-2-carboxylic acid] | – | 0.39 (≈ 0.966 µM) | 0.2 (≈ 0.495 µM) | 0.1 (≈ 0.248 µM) | 0.1 (≈ 0.248 µM) | 1.56 (≈ 3.86 µM) | 0.2 (≈ 0.495 µM) | 0.2 (≈ 0.495 µM) | 3.13 (≈ 7.75 µM) | 0.78 (≈ 1.93 µM) | 0.2 (≈ 0.495 µM) | 0.78 (≈ 1.93 µM) | 20200 | 15900 | 7700 | 4500 | –
